Target: 5-hydroxytryptamine receptor 2A (Homo sapiens, UniProt P28223)
Assay: Ability to displace [3H]ketanserin from CHO cells expressing human 5-hydroxytryptamine 2A receptor was determined
Type: cell-based

Sequence of 5-hydroxytryptamine receptor 2A (P28223 whole entry): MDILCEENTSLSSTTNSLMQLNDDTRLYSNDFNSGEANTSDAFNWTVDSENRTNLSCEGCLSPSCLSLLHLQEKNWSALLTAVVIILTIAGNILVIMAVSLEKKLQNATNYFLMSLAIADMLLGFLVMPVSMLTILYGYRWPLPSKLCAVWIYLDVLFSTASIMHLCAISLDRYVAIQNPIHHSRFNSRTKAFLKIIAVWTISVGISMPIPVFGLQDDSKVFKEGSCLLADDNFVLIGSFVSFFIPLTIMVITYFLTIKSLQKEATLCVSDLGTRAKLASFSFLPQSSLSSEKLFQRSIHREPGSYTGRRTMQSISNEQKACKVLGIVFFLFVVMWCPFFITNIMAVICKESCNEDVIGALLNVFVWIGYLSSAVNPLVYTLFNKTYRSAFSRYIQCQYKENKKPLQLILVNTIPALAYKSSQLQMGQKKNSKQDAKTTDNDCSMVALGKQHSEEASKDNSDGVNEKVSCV

Work on `c1ccc(-c2[nH]c3ccccc3c2CCN2CCCCC2)cc1` yielded a Ki of 2.7 nM.
